In patent publication US20150258118A1, “CO-MICRONISATION PRODUCT COMPRISING A SELECTIVE PROGESTERONE-RECEPTOR MODULATOR” (LABORATOIRE HRA-PHARMA, priority 2012, published 2015):
Converted amounts (≈) assume the structure as drawn.

Legend:
[1] = UPA solubility as a function of pH; format: physicochemical
[2] = In vitro dissolution of UPA comicronizates (gelatin capsules, paddle device, Eur. Pharmacopoeia §2.9.3); format: physicochemical; conditions: 30 mg UPA capsule, 900 ml gastric pH buffer, 0.1% SDS, 37°C, 50 rpm, mean of 3
Experimental: The co-micronization product has improved active ingredient in vitro dissolution properties. In certain embodiments, the co-micronization product according to the invention is characterized in that at least 55% of the active ingredient that it contains is released within 45 minutes when said co-micronization product is subjected to an in vitro dissolution test, preferably according to the European Pharmacopoeia §2.9.3. The in vitro dissolution test can be carried out using any commercially available device. Example 1 hereinafter presents implementing conditions for determining the in vitro dissolution rate of a comicronizate according to the invention. Briefly, an amount of comicronizate representing 30 mg of active ingredient is placed in a gelatin capsule. This capsule is then placed in 900 ml of a medium buffered at gastric pH, comprising 0.1% of SDS, at 37±0.5° C., and subjected to stirring at 50 revolutions per minute (rpm) (speed of rotation of the paddles of the dissolution device). The dissolution of the active ingredient in the medium can be monitored by spectrophotometry, for example at the maximum wavelength of absorbance. For the purposes of the invention, a gastric pH is typically a pH of 1 to 3.
For each comicronizate obtained, gelatin capsules containing an amount of comicronizate corresponding to 30 mg of UPA per capsule were prepared. The studies of the in vitro dissolution of UPA as comicronizate were carried out using these capsules according to the method described in the European Pharmacopoeia in §2.9.3, using a paddle dissolution device.
For each comicronizate, a capsule containing said comicronizate was placed in a bowl of the dissolution device containing 900 ml of a dissolution medium. The dissolution medium is an aqueous solution buffered at gastric pH and comprising 0.1% of SDS. The conditions for carrying out the in vitro dissolutions are the following: • Paddle rotation speed: 50 revolutions per minute (rpm) • Temperature: 37° C.±0.5° C.
The dissolution of the UPA was monitored by spectrophotometry.
By way of control experiment, a gelatin capsule containing 30 mg of ulipristal acetate micronized alone (i.e. UPA micronized in the absence of any co-micronization excipient) was used. For each comicronizate, the dissolution experiment was reproduced 3 times.
These various active ingredient matrices were subjected to an in vitro dissolution test as described above in the “Materials and Methods” section.

[3] = single dose of 30 mg, within 120 hours following unprotected or poorly protected intercourse; cited from earlier work
[4] = chronic administration, 5 mg or 10 mg per day; cited from earlier work

## CC(=O)O[C@]1(C(C)=O)CCC2C3CCC4=CC(=O)CCC4=C3[C@@H](c3ccc(N(C)C)cc3)C[C@@]21C (stereo partly drawn) [UPA, 17α-acetoxy-11β-(4-N,N-dimethylaminophenyl)-19-norpregna-4,9-diene-3,20-dione]
[1]; pH 1.2, simulated gastric fluid
  solubility: 22700 µg/mL (≈ 47700 µM)
[1]; pH 4.5, aqueous buffer
  solubility: 39 µg/mL (≈ 82 µM)
[1]; pH 6.8, aqueous buffer
  solubility: 5 µg/mL (≈ 10.5 µM)
[2]; time 0 min
  Percentage of UPA released relative to the initial amount of UPA per gel capsule: 0.00%
[2]; time 1 min
  Percentage of UPA released relative to the initial amount of UPA per gel capsule: 0.00%
[2]; time 5 min
  Percentage of UPA released relative to the initial amount of UPA per gel capsule: 5.50%
[2]; time 7.5 min
  Percentage of UPA released relative to the initial amount of UPA per gel capsule: 15.00%
[2]; time 10 min
  Percentage of UPA released relative to the initial amount of UPA per gel capsule: 22.30%
[2]; time 15 min
  Percentage of UPA released relative to the initial amount of UPA per gel capsule: 30.00%
[2]; time 20 min
  Percentage of UPA released relative to the initial amount of UPA per gel capsule: 34.30%
[2]; time 30 min, listed as Micronized UPA
  Percentage of UPA released relative to the initial amount of UPA per gel capsule: 39.50%
[2]; time 30 min, listed as micronized ulipristal acetate
  Percentage of UPA released relative to the initial amount of UPA per gel capsule: approximately 39%
[2]; time 45 min
  Percentage of UPA released relative to the initial amount of UPA per gel capsule: 47.50%
[2]; time 60 min
  Percentage of UPA released relative to the initial amount of UPA per gel capsule: 53.80%
[3]
  Prevention of unwanted pregnancy: makes it possible to prevent an unwanted pregnancy
[4]
  Symptoms associated with uterine fibromas: significantly reduce the symptoms associated with uterine fibromas
